Results as given in patent publication US20090298938A1, “USE OF SEMI SYNTHETIC ANALOGUES OF BOSWELLIC ACIDS FOR ANTICANCER ACTIVITY” (COUNCIL OF SCIENTIFIC & INDUSTRIAL RESEARCH, priority 2008, published 2009).
“Also recorded” adds a separate entry of the source.

Tests used:
Type in all cases: cell-based, human
HL-60 cells [1] = test: Inhibition of cell proliferation, MTT assay; conditions: HL-60, 48 hours
Protocol: FIGS. 1A-1B. FIG. 1A depicts the main triterpenoic acid constituents of the gum exudates from Boswellia serrata, the source of boswellic acids, represented by boswellic acid, acetyl boswellic acid, 11-keto-boswellic acids, acetyl-11-keto-boswellic acid. […] Cell proliferation analysis was performed in HL-60 cells using the MTT method described in the Examples section. Cells were incubated with each formula 1 analog for 48 hours at indicated concentration and thereafter, the mitochondiral competence of MTT reduction as an index of cell viability was determined. The optical density (OD) of the untreated control was taken as 100% viability. […] This analog, as a prototype, was selected for detailed investigations. Where a=compound of formula 1, R3=COCH2CH2CH3, R1=H, R4=R5=H, b=compound of formula 1, R3=COCH2CH3, R1=H, X=H2, c=compound of formula 1, R3=COCH2CH2CH3, R1=H, R4+R5=O, d=compound of formula 1, R1=H, R3=COCH2CH3, R4=R5=H, e=compound of formula 1, R3=COCH2CH2CH3, R1=H, R4=R5=H, f=β-boswellic acid
Human leukemia cells HL-60 were grown in suspension in 96-well culture plate and were incubated with different concentrations of the test analogs for 48 hr. The cells were then incubated with MTT and the MTT-formazon formed is eluted with DMSO, and OD measured in ELISA Reader [Shashi et al., 2006]. The intensity of the color formed in the untreated control wells relates to 100% cell growth. […]

HL-60 cells [2] = test: Apoptosis induction, annexin V-FITC/PI flow cytometry; conditions: HL-60, 15 μM, 6 hr
Protocol: FIG. 2. Comparative efficacy of apoptosis induction: Measurement by flow cytometry. The effects of boswellic acid on the relative efficiency of induction of apoptosis and necrosis in HL-60 cells were analyzed by flow cytometry. Cells were incubated with each analog for 6 hrs and stained with annexin V-FITC labeled. The dot plots are representative of one of the two separate experiments. Values in the lower right quadrant represent the apoptotic population in the UR as post-apoptotic and in the UL as necrotic. Where a=compound of formula 1, R3=COCH2CH2CH3, […], R4=[…], b=compound of formula 1, R3=COCH2CH3R1=H, R4=[…], c=compound of formula 1, R3=COCH2CH2CH3, […], R4+R5=O, d=compound of formula 1, […], R3=COCH2CH3, R4=[…], e=compound of formula 1, R3=COCH2CH2CH3, […], R4=[…], f=β-boswellic acid. Compounds of formula 1 where […], R3=COCH2CH3R3=[…]; R3=COCH2CH2CH3, […], R4=[…] and natural β-boswellic acid produced low level of apoptotic cell population (approx. 10%) compared to compound of formula 1 where R3=COCH2CH2CH3, […], R4=[…] (17%), […], R3=COCH2CH3, R4=[…] (30%) and where R3=COCH2CH2CH3, […], R4+R5=O (23%), although the combined apoptotic and post-apoptotic population was about 32% with the last three analogs. Confirmation that boswellic acid analogs are potent inducers of apoptosis may also be obtained from DNA fragmentation assay. During the early events of apoptosis, phospholipid phosphatidyl serine of plasma membrane is externalized, which has very high affinity for annexinV antibody. Effect of a single concentration (15 μM) of each boswellic acid analogs on the relative efficiency of induction of apoptosis and necrosis in HL-60 cells was analyzed by flow cytometry. Cells were incubated with each analog for 6 hr and stained with Annexin V-FITC/PI. Camptothecin at 4 μM was used as positive control. There after, cells were washed and stained with FITC conjugated annexinV antibody and propidium iodide. The cells (10,000) were analysed by flow cytometery (BD, LSR) using ProQuest software.

HL-60 cells [3] = test: Endogenous nitric oxide, DAF-2-DA flow cytometry; conditions: HL-60, 4 hr
Protocol: FIG. 5. Copious early endogenous formation of nitric oxide by compound of formula 1 where R3=COCH2CH2CH3, R1=H, R4+R5=O in HL-60 cells. Nitric Oxide (NO) production was measured by flow cytometry in the FL1 channel using DAF-2-DA (an NO probe) after exposing HL-60 cells for 4 hours to indicated concentrations of SS-145. To investigate the contribution of iNOS to NO production, cells were pre-incubated with iNOS inhibitor sMIT (0.5 mM) for 1 hour prior to treatment with a compound designated “c” (a compound of formula 1 wherein R3=COCH2CH2CH3, R1=H, R4+R5=O). NO and peroxide generation are the early events leading to oxidative stress in the cells. […] It is possible that NO stimulated mitochondrial superoxide generation which together with NO may form peroxynitrite, a dangerous species in producing oxidative damage to the cells and responsible for production of apoptosis
Measurement of in situ NO generation involved the use of a fluorescent probe diaminofluoresceine-2-diacetate, which is permeated easily into the cells. Once inside the cell it binds NO soon it is formed and emits fluorescence [H. Kojima et al, 1998]. For this purpose, the HL-60 cells were incubated with DAF-2-DA for 30 min before being incubated with the indicated concentration of SS-145 for 4 hr. Cells were analyzed on flow cytometer in FL-1 channel for NO. […]

## CCCC(=O)OC1CCC2(C)C(CCC3(C)C2C(=O)C=C2C4C(C)C(C)CCC4(C)CCC23C)C1(C)C(=O)O (stereo not shown) [R3=COCH2CH2CH3, R1=H, R4+R5=O]
HL-60 cells [1]
  effect on cell proliferation compared to other analogs: marginally stronger effect compared to other analogs
HL-60 cells [2]
  apoptotic cell population: 23%
  combined apoptotic and post-apoptotic population: about 32%
HL-60 cells [3]
  nitric oxide generation: early generation of NO; also recorded: all the cells formed NO within 6 hr irrespective of the concentration
